Reference: PubChem BioAssay AID1259408 (Genetic Toxicology Data Bank (GENE-TOX), 2018)
Calls of active or inactive are those of the source. How the calls were made is not given here.

System: GENE-TOX genotoxicity assays, various organisms and cells
Assay: GENE-TOX mutagenicity studies
Conditions: for call: Assay Type: In vivo carcinogenicity studies
[1] = Species/Cell Type: Drosophila melanogaster, Assay Type: Sex-linked recessive lethal gene mutation, Assay Code: SRLT, Evaluation Type: Evaluation A (Pre-1980)
[2] = Species/Cell Type: Nonhuman, Assay Code: CCG+, Evaluation Type: Evaluation A (Pre-1980)
[3] = Species/Cell Type: Bacillus subtilis (H17 vs M45), Assay Type: Rec-assay, spot test, DNA effects (bacterial DNA repair), Assay Code: REW+, Evaluation Type: Evaluation A (Pre-1980)
[4] = Species/Cell Type: Chinese hamster ovary (CHO) cells, Assay Type: Forward gene mutation at the HPRT locus, Assay Code: CHO+, Evaluation Type: Evaluation B (Post-1980)
[5] = Species/Cell Type: Fischer rat embryo (RLV/1706) cells, Assay Type: Cell transformation, viral enhanced, Assay Code: CTR+, Evaluation Type: Evaluation A (Pre-1980)
[6] = Species/Cell Type: Mammalian polychromatic erythrocytes, Assay Type: Micronucleus test, chromosome aberrations, Assay Code: MNT+, Evaluation Type: Evaluation A (Pre-1980)
[7] = Species/Cell Type: Saccharomyces cerevisiae, Assay Type: Mitotic recombination or gene conversion, Assay Code: YEC+, Evaluation Type: Evaluation A (Pre-1980)
[8] = Species/Cell Type: Salmonella typhimurium (one or more of the five standard strains: TA98, TA100, TA1535, TA1537, and TA1538), Assay Type: Histidine reverse gene mutation, Ames assay, Assay Code: SAL+*, Activation: With metabolic activation, Evaluation Type: Evaluation A (Pre-1980)
[9] = Species/Cell Type: Salmonella typhimurium, Assay Type: Forward and reverse gene mutation, host-mediated assay, Assay Code: HMA+, Evaluation Type: Evaluation A (Pre-1980)
[10] = Species/Cell Type: Nonhuman, Assay Code: CCG+L, Evaluation Type: Evaluation A (Pre-1980)
[11] = Species/Cell Type: Salmonella typhimurium (one or more of the five standard strains: TA98, TA100, TA1535, TA1537, and TA1538), Assay Type: Histidine reverse gene mutation, Ames assay, Assay Code: SALT, Evaluation Type: Evaluation A (Pre-1980)

CCc1cn([C@H]2C[C@H](O)[C@@H](CO)O2)c(=O)[nH]c1=O
mutagenic call [1]: no conclusion | mutagenic call (Species/Cell Type: Drosophila melanogaster, Sex: Male, Assay Type: Heritable translocation test, chromosome aberrations, Assay Code: DHTT, Evaluation Type: Evaluation A (Pre-1980)): no conclusion | mutagenic call (Species/Cell Type: Human lymphocytes, Assay Type: Sister-chromatid exchange (SCE) in vitro, Assay Code: SCLT, Evaluation Type: Evaluation B (Post-1980)): no conclusion | mutagenic call (Species/Cell Type: Human, Assay Type: Sister-chromatid exchange (SCE) in vitro, Assay Code: SC1T, Evaluation Type: Evaluation B (Post-1980)): no conclusion

CCOC(=O)COc1ccc(Br)cc1CCl (tested in a mixture with another compound)
mutagenic call (Species/Cell Type: Saccharomyces cerevisiae, Assay Type: Reverse gene mutation, Assay Code: YERT, Evaluation Type: Evaluation A (Pre-1980)): no conclusion

[S]=[Cd]
mutagenic call (Species/Cell Type: Human lymphocytes or leukocytes, Assay Type: Chromosome aberrations in vitro, Assay Code: CY7+, Evaluation Type: Evaluation A (Pre-1980)): active; positive | call [2]: active; positive

C#CCNC(=NCCSCc1nc[nH]c1C)NC#N
mutagenic call (Species/Cell Type: Mammalian polychromatic erythrocytes, Assay Type: Micronucleus test, chromosome aberrations, Assay Code: MNT-, Evaluation Type: Evaluation B (Post-1980)): inactive; negative

O=[N+]([O-])[O-].O=[N+]([O-])[O-].[Mn+2]
mutagenic call [3]: active; positive

CN(C)Nc1nc(-c2ccc([N+](=O)[O-])o2)cs1
mutagenic call (Species/Cell Type: Escherichia coli WP2, Assay Type: Tryptophan reverse gene mutation, Assay Code: WP2+, Evaluation Type: Evaluation A (Pre-1980)): active; positive | mutagenic call (Species/Cell Type: Escherichia coli WP2 UVRA, Assay Type: Tryptophan reverse gene mutation, Assay Code: WPU-, Evaluation Type: Evaluation A (Pre-1980)): inactive; negative | mutagenic call (Species/Cell Type: Salmonella typhimurium (one or more of the five standard strains: TA98, TA100, TA1535, TA1537, and TA1538), Assay Type: Histidine reverse gene mutation, Ames assay, Assay Code: SAL+, Evaluation Type: Evaluation A (Pre-1980)): active; positive

Nc1ccc2ccccc2c1
mutagenic call [4]: active; positive | mutagenic call [1]: no conclusion | mutagenic call (Species/Cell Type: Escherichia coli polA (W3110 vs P3478), Assay Type: Rec-assay, DNA effects (bacterial DNA repair), Assay Code: RE2+, Evaluation Type: Evaluation A (Pre-1980)): active; positive | mutagenic call (Species/Cell Type: Escherichia coli polA (W3119 vs P3478), Assay Type: Rec-assay, DNA effects (bacterial DNA repair), Assay Code: RE1-, Evaluation Type: Evaluation A (Pre-1980)): inactive; negative | mutagenic call (Species/Cell Type: Escherichia coli polA (W3119 vs P3478), Assay Type: Rec-assay, DNA effects (bacterial DNA repair), Assay Code: RE1T, Evaluation Type: Evaluation A (Pre-1980)): no conclusion | mutagenic call [5]: active; positive | mutagenic call [6]: active; positive | mutagenic call (Species/Cell Type: Mouse (BALB/c-3T3) cells, Assay Type: Cell transformation, Assay Code: CTB-, Evaluation Type: Evaluation A (Pre-1980)): inactive; negative | mutagenic call (Species/Cell Type: Mouse embryo (AKR/ME) cells, Assay Type: Cell transformation, Assay Code: CTK+, Evaluation Type: Evaluation A (Pre-1980)): active; positive | mutagenic call (Species/Cell Type: Mouse, Sex: Male, Assay Type: Sperm morphology, Assay Code: SPI-, Evaluation Type: Evaluation A (Pre-1980)): inactive; negative | mutagenic call (Species/Cell Type: Neurospora crassa, Assay Type: Forward gene mutation, Assay Code: NEF+, Evaluation Type: Evaluation A (Pre-1980)): active; positive | call [2]: active; positive | mutagenic call (Species/Cell Type: Nonhuman, Assay Type: Sister-chromatid exchange (SCE) in vitro, Assay Code: SC2+D*, Activation: With metabolic activation, Dose Response: With dose response, Evaluation Type: Evaluation B (Post-1980)): active; positive | mutagenic call (Species/Cell Type: Nonhuman, Assay Type: Sister-chromatid exchange (SCE) in vivo, Assay Code: SC3+, Evaluation Type: Evaluation B (Post-1980)): active; positive | mutagenic call (Species/Cell Type: Saccharomyces cerevisiae, Assay Type: Forward gene mutation, Assay Code: YEF+*, Activation: With metabolic activation, Evaluation Type: Evaluation A (Pre-1980)): active; positive | mutagenic call [7]: active; positive | mutagenic call (Species/Cell Type: Saccharomyces cerevisiae, Assay Type: Mitotic recombination or gene conversion, Assay Code: YEH+*, Activation: With metabolic activation, Evaluation Type: Evaluation A (Pre-1980)): active; positive | mutagenic call (Species/Cell Type: Saccharomyces cerevisiae, Assay Type: Mitotic recombination or gene conversion, Assay Code: YEH-, Evaluation Type: Evaluation A (Pre-1980)): inactive; negative | mutagenic call [8]: active; positive | mutagenic call [9]: active; positive | mutagenic call (Species/Cell Type: Syrian hamster embryo (SA7/SHE) cells, Assay Type: Cell transformation, viral enhanced, Assay Code: CT7+, Evaluation Type: Evaluation A (Pre-1980)): active; positive | mutagenic call (Species/Cell Type: Syrian hamster embryo (SHE) cells, Assay Type: Cell transformation, clonal assay, Assay Code: CTC+, Evaluation Type: Evaluation A (Pre-1980)): active; positive | mutagenic call (Species/Cell Type: Tradescantia species, Assay Type: Gene mutation, Assay Code: TRM+D, Dose Response: With dose response, Evaluation Type: Evaluation A (Pre-1980)): active; positive

ClC=C(Cl)Cl
mutagenic call (Species/Cell Type: Drosophila melanogaster, Assay Type: Sex-linked recessive lethal gene mutation, Assay Code: SRL-, Evaluation Type: Evaluation A (Pre-1980)): inactive; negative | mutagenic call [5]: active; positive | mutagenic call (Species/Cell Type: Mammalian polychromatic erythrocytes, Assay Type: Micronucleus test, chromosome aberrations, Assay Code: MNT+, Evaluation Type: Evaluation B (Post-1980)): active; positive | mutagenic call (Species/Cell Type: Mouse, Sex: Female, Assay Type: Spot test, gene mutation, Assay Code: MST+, Evaluation Type: Evaluation A (Pre-1980)): active; positive | mutagenic call (Species/Cell Type: Mouse, Sex: Male, Assay Type: Sperm morphology, Assay Code: SPI+, Evaluation Type: Evaluation A (Pre-1980)): active; positive | call [10]: active; positive | mutagenic call (Species/Cell Type: Nonhuman, Assay Type: Sister-chromatid exchange (SCE) in vitro, Assay Code: SC2T, Evaluation Type: Evaluation B (Post-1980)): no conclusion | mutagenic call (Species/Cell Type: Saccharomyces cerevisiae, Assay Type: Forward and reverse gene mutation, mitotic recombination and gene conversion, host-mediated assay, Assay Code: HME+, Evaluation Type: Evaluation A (Pre-1980)): active; positive | mutagenic call [7]: active; positive | mutagenic call (Species/Cell Type: Saccharomyces cerevisiae, Assay Type: Mitotic recombination or gene conversion, Assay Code: YEH+, Evaluation Type: Evaluation A (Pre-1980)): active; positive | mutagenic call (Species/Cell Type: Saccharomyces cerevisiae, Assay Type: Reverse gene mutation, Assay Code: YER+, Evaluation Type: Evaluation A (Pre-1980)): active; positive | mutagenic call [11]: no conclusion | mutagenic call (Species/Cell Type: Tradescantia species, Assay Type: Gene mutation, Assay Code: TRM+, Evaluation Type: Evaluation A (Pre-1980)): active; positive

Cc1cccc2c1cc(C)c1c3ccccc3ccc21
mutagenic call [8]: active; positive

CN(C)/N=N/c1nc[nH]c1C(N)=O
mutagenic call [4]: active; positive | mutagenic call (Species/Cell Type: Drosophila melanogaster, Assay Type: Sex-linked recessive lethal gene mutation, Assay Code: SRL+, Evaluation Type: Evaluation A (Pre-1980)): active; positive | mutagenic call (Species/Cell Type: Human lymphocytes, Assay Type: Sister-chromatid exchange (SCE) in vivo, Assay Code: SCY+, Evaluation Type: Evaluation B (Post-1980)): active; positive | call [2]: active; positive | mutagenic call (Species/Cell Type: Nonhuman, Assay Type: Sister-chromatid exchange (SCE) in vitro, Assay Code: SC2+, Evaluation Type: Evaluation B (Post-1980)): active; positive

C1COCCN1
mutagenic call [9]: active; positive

CN(CCO)c1nc(Nc2ccccc2)nc(Nc2ccc(/C=C/c3ccc(Nc4nc(Nc5ccccc5)nc(N(C)CCO)n4)cc3S(=O)(=O)O)c(S(=O)(=O)O)c2)n1
mutagenic call (Species/Cell Type: Rodents, Sex: Male, Assay Type: Dominant lethal test, Assay Code: DLT-, Evaluation Type: Evaluation A (Pre-1980)): inactive; negative | mutagenic call [11]: no conclusion

CN(C)C(=S)SSC(=S)N(C)C
mutagenic call [3]: active; positive | mutagenic call [6]: active; positive

Oc1cc(O)cc(O)c1
mutagenic call (Species/Cell Type: Allium cepa, Assay Type: Chromosome aberrations, Assay Code: ALC+D, Dose Response: With dose response, Evaluation Type: Evaluation A (Pre-1980)): active; positive

CC(C)(c1ccc(OCC2CO2)cc1)c1ccc(OCC2CO2)cc1 (stereo not drawn)
mutagenic call [8]: active; positive

CCOC(=O)Nc1ncc(-c2ccc(Cl)cc2)[nH]1
mutagenic call (Species/Cell Type: Salmonella typhimurium, Assay Type: Forward and reverse gene mutation, host-mediated assay, Assay Code: HMAT, Evaluation Type: Evaluation A (Pre-1980)): no conclusion

O=[N+]([O-])c1ccc(/C=C/c2cccc(CO)n2)o1
mutagenic call (Species/Cell Type: Human diploid fibroblasts, Assay Type: Unscheduled DNA synthesis (UDS) in vitro, DNA effects, Assay Code: UDH+, Evaluation Type: Evaluation A (Pre-1980)): active; positive

COc1ccc2nc3cc(Cl)ccc3c(NCCCNCCO)c2c1
mutagenic call (Species/Cell Type: Chinese hamster ovary (CHO) cells, Assay Type: Forward gene mutation at the HPRT locus, Assay Code: CHO-, Evaluation Type: Evaluation A (Pre-1980)): inactive; negative | mutagenic call (Species/Cell Type: Chinese hamster ovary (CHO) cells, Assay Type: Forward gene mutation at the HPRT locus, Assay Code: CHOT, Evaluation Type: Evaluation B (Post-1980)): no conclusion | mutagenic call [11]: no conclusion

CC1=C2CCc3c2c(cc2c3ccc3ccccc32)C(O)C1O (stereo not drawn)
mutagenic call (Species/Cell Type: Chinese hamster lung (V79) cells, Assay Type: Forward gene mutation at the HPRT or ouabain locus, Assay Code: V79-, Evaluation Type: Evaluation A (Pre-1980)): inactive; negative | call [10]: active; positive
